From patent US8753841B2, “Enzyme that catalyzes a peptide-forming reaction from a carboxy component and an amine component, microbe producing the same, and a method of producing a dipeptide using the enzyme or microbe” (Ajinomoto Co., Inc., priority 2002, dated 2014)
Marks after values point to notes of the source that are not given here. *: point of attachment. Boc = CC(C)(C)OC(=O)*; OtBu = CC(C)(C)O*; tBu = CC(C)(C)*

Columns and labels:
Assay type in all cases: biochemical
[1] = system: peptide-forming enzyme from Empedobacter brevis strain FERM BP-8113; test: Substrate specificity of enzyme (peptide production from carboxy and amine components); design: key to Formed peptide (mM): +: those peptides for which production was confirmed but which were unable to be quantified due to the absence of a standard; a trace amount
[2] = system: enzyme derived from Sphingobacterium sp. strain FERM BP-8124; test: Substrate specificity of enzyme derived from Sphingobacterium sp.; settings: carboxy component 100 mM, 0.33 units enzyme, pH 9.0, 25° C., 1.5 hours
[3] = system: peptide-forming enzyme from Empedobacter brevis strain FERM BP-8113; test: Substrate specificity of enzyme (peptide production from carboxy and amine components); settings: pH 9.0, 25° C.; for L-Ala-L-Gln formed: carboxy component 100 mM, 200 mM L-glutamine, 2 hours; for Formed peptide: L-amino acid methyl ester hydrochloride 100 mM, 3 hours
From the text: Ester specificity was examined in the case of using L-amino acid ester for the carboxy component. […] HCl represents hydrochloride in Table 4.
Peptide production was examined in the case of using L-alanine methyl ester for the carboxy component and using various L-amino acids for the amine component.
Peptide production was examined in the case of using various types of L-amino acid methyl esters for the carboxy component and using L-glutamine for the amine component. […] Furthermore, Tween-80 was added to the reaction system to a final concentration of 0.1% in the case of using L-Trp-OMe and L-Tyr-OMe.

[4] = amino acid methyl ester hydrochloride 100 mM, methylamine 150 mM, pH 9.0, 25° C., 3 hours
[5] = Table 15-4, amine component 150 mM
[6] = β-amino acid ester or β-amino acid, carboxy component 100 mM, amine component 150 mM, pH 9.0, 25° C., 3 hours
[7] = L or D amino acid methyl ester hydrochloride 100 mM, L or D amino acid 150 mM, pH 9.0, 25° C., 3 hours
[8] = Table 15-1, amine component 150 mM
[9] = carboxy component 100 mM, peptide amine component 150 mM, pH 9.0, 25° C., 3 hours
[10] = oligopeptide production, amine component 150 mM
[11] = Table 15-3, amine component 150 mM
[12] = carboxy component 100 mM, amine component 150 mM, 0.1 unit enzyme, 25° C., reaction time 3 hr
[13] = carboxy component 100 mM, amine component 150 mM, 0.1 unit enzyme, 25° C., reaction time 2 hr
[14] = carboxy component 40 mM, amine component 40 mM, 0.1 unit enzyme, 25° C., reaction time 3 hr
[15] = L-alanine methyl ester hydrochloride 100 mM, L-amino acid amide hydrochloride 150 mM, pH 9.0, 25° C., 3 hours

CNC(=O)CN [Gly-methylamine]
Formed peptide [1, 4]: 1.1 mM
Produced peptide [2, 5]: 1.0 mM

CNC(=O)C(C)N [L-Ala-methylamine]
Formed peptide [1, 4]: 0.3 mM
Produced peptide [2, 5]: 0.6 mM

CCOC(=O)[C@H](C)N.Cl [L-Alanine ethyl ester•HCl]
L-Ala-L-Gln formed [3]: 91.5 mM

CC(C)OC(=O)[C@H](C)N.Cl [L-Alanine isopropyl ester•HCl]
L-Ala-L-Gln formed [3]: 78.9 mM

COC(=O)[C@H](C)N.Cl [L-Alanine methyl ester•HCl, L-alanine methyl ester hydrochloride]
L-Ala-L-Gln formed [3]: 84.3 mM

C[C@H](N)C(=O)OC(C)(C)C.Cl [L-Alanine-t-butyl ester•HCl]
L-Ala-L-Gln formed [3]: 7.5 mM

CNC(=O)[C@@H](N)[C@@H](C)O [L-Thr-methylamine]
Formed peptide [1, 4]: 0.2 mM
Produced peptide [2, 5]: 0.3 mM

Ala-β-Ala
Formed peptide [1, 6]: 7.7 mM

Ala-β-Phe
Formed peptide [1, 6]: 1.4 mM

D-Ala-D-Gln
Formed peptide (mM) [1, 7]: tr

D-Ala-D-Ser
Formed peptide [1, 7]: 0.2 mM
Produced peptide [2, 8]: 5.5 mM

D-Ala-L-Gln
Formed peptide [1, 7]: 69.3 mM

D-Ala-L-Ser
Formed peptide [1, 7]: 20.3 mM
Produced peptide [2, 8]: 24.1 mM

D-Met-D-Ser
Formed peptide [1, 7]: 2.7 mM

D-Met-L-Ser
Formed peptide [1, 7]: 5.1 mM

D-Ser-D-Ser
Formed peptide [1, 7]: 2.5 mM

D-Ser-L-Ser
Formed peptide [1, 7]: 3.3 mM

D-Thr-D-Ser
Formed peptide [1, 7]: 1.1 mM

D-Thr-L-Ser
Formed peptide [1, 7]: 1.0 mM

D-Val-D-Ser
Formed peptide [1, 7]: 0.5 mM

D-Val-L-Ser
Formed peptide [1, 7]: 0.6 mM

Gly-Gly-L-Gln
Produced peptide [1, 9]: 7.2 mM

Gly-Gly-L-Tyr-L-Ala
Produced peptide [1, 9]: 44.2 mM

Gly-L-Ala-L-Tyr
Produced peptide [1, 9]: 1.7 mM
Produced peptide [2, 10]: 0.6 mM

Gly-L-Arg
Formed peptide ([3]; L-amino acid 150 mM): 25.5 mM
Produced peptide [2, 11]: 17.9 mM

Gly-L-CySH
Formed peptide ([3]; L-amino acid 150 mM): 45.6 mM

Gly-L-Gln
Formed peptide ([3]; 150 mM L-glutamine): 54.7 mM
Produced peptide ([2]; Table 15-2, L-Gln 150 mM): 61.1 mM

Gly-L-Lys
Formed peptide ([3]; L-amino acid 150 mM): 9.8 mM
Produced peptide [2, 11]: 48.2 mM

Gly-L-Ser
Formed peptide ([3]; L-amino acid 150 mM): 44.2 mM
Produced peptide [2, 11]: 53.8 mM

Gly-Phe-Met
Produced peptide ([1]; oligopeptide production, amount of enzyme 1.0 unit, pH 9.0, 25° C., 3 hours): 13.3 mM

Gly-β-Ala
Formed peptide [1, 6]: 2.2 mM

Gly-β-Phe
Formed peptide [1, 6]: 0.4 mM

H-Aib-H-Gln-OH
Produced peptide [1, 12]: 18.8 mM

H-Aib-Phe-OH
Produced peptide [1, 12]: 17.2 mM

H-Ala-Asp(OtBu)-OH
Produced peptide [1, 13]: 62.6 mM

H-Ala-Cl—F-Phe-OH
Produced peptide [1, 14]: 20.8 mM

H-Ala-Lys(Boc)-OH
Produced peptide [1, 13]: 51.0 mM

H-Ala-Ser(tBu)-OH
Produced peptide [1, 13]: 48.8 mM

H-Ala-p-F-Phe-OH
Produced peptide ([1]; carboxy component 50 mM, amine component 50 mM, 0.1 unit enzyme, 25° C., reaction time 3 hr): 21.9 mM

H-Ala-p-NO2-Phe-OH
Produced peptide [1, 14]: 27.5 mM

H-Ala-t-Leu-OH
Produced peptide [1, 12]: 0.4 mM

H-Asp(OtBu)-Gln-OH
Produced peptide [1, 13]: 0.9 mM

H-p-NO2-Phe-H-Gln-OH
Produced peptide [1, 14]: 1.1 mM

H—N—Me-Ala-H-Gln-OH
Produced peptide [1, 12]: 0.5 mM

L-Ala-D-Gln
Formed peptide [1, 7]: 0.3 mM

L-Ala-D-Ser
Formed peptide [1, 7]: 5.4 mM
Produced peptide [2, 8]: 3.3 mM

L-Ala-Gly
Produced peptide [2, 8]: 11.1 mM

L-Ala-Gly-Gly
Produced peptide [1, 9]: 41.7 mM
Produced peptide [2, 10]: 33.7 mM

L-Ala-Gly-L-Ala
Produced peptide [1, 9]: 25.9 mM
Produced peptide [2, 10]: 35.1 mM

L-Ala-Gly-NH2
Formed peptide [1, 15]: 7.4 mM
Produced peptide [2, 5]: 15.1 mM

L-Ala-L-Ala
Produced peptide [1, 9]: 28.7 mM
Produced peptide [2, 8]: 13.1 mM
Produced peptide [2, 10]: 25.6 mM

L-Ala-L-Ala-L-Ala
Produced peptide [1, 9]: 57.5 mM
Produced peptide [2, 10]: 41.1 mM

L-Ala-L-Ala-L-Ala-L-Ala
Produced peptide [1, 9]: 44.5 mM
Produced peptide [2, 10]: 30.1 mM

L-Ala-L-Ala-L-Ala-L-Ala-L-Ala
Produced peptide [1, 9]: 34.8 mM
Produced peptide [2, 10]: 22.8 mM

L-Ala-L-Ala-L-Ala-L-Ala-L-Ala-L-Ala
Produced peptide (mM) ([1]; carboxy component 10 mM, amine component 15 mM, pH 9.0, 25° C., 3 hours): 1.4* mM

L-Ala-L-Ala-L-Gln
Produced peptide [1, 9]: 15.2 mM

L-Ala-L-Ala-NH2
Formed peptide [1, 15]: 8.3 mM
Produced peptide [2, 5]: 9.2 mM
